Assay results published in ChEMBL document CHEMBL1201862, “PubChem BioAssay data set” (2004).
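48-hour exposure; five concentrations; linearly interpolated endpoints. GI50: concentration for 50% inhibition of growth.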 Active and inactive are the calls of the source. No stated cut-off is given here; in the data, active = GI50 up to about 1.1 µM and inactive = higher.

Legend:
Assay in all cases: DTP human tumour cell line panel, 48 h
786-0 = system: 786-0
A498 = system: A498
A549 = system: A549
ACHN = system: ACHN
BT-549 = system: BT-549
CAKI-1 = system: CAKI-1
COLO 205 = system: COLO 205
DU-145 = system: DU-145
EKVX = system: EKVX
HCC 2998 = system: HCC 2998
HCT-116 = system: HCT-116
HCT-15 = system: HCT-15
HOP-62 = system: HOP-62
HOP-92 = system: HOP-92
HT-29 = system: HT-29
Hs-578T = system: Hs-578T
IGROV-1 = system: IGROV-1
K562 = system: K562
KM12 = system: KM12
M14 = system: M14
MCF7 = system: MCF7
MDA-MB-231 = system: MDA-MB-231
MDA-MB-435 = system: MDA-MB-435
MDA-N = system: MDA-N
MOLT-4 = system: MOLT-4
Malme-3M = system: Malme-3M
NCI-H23 = system: NCI-H23
NCI-H460 = system: NCI-H460
NCI-H522 = system: NCI-H522
NCI/ADR-RES = system: NCI/ADR-RES
OVCAR-3 = system: OVCAR-3
OVCAR-4 = system: OVCAR-4
OVCAR-5 = system: OVCAR-5
OVCAR-8 = system: OVCAR-8
PC-3 = system: PC-3
RPMI-8226 = system: RPMI-8226
RXF 393 = system: RXF 393
SF-268 = system: SF-268
SF-295 = system: SF-295
SK-MEL-28 = system: SK-MEL-28
SK-MEL-2 = system: SK-MEL-2
SK-MEL-5 = system: SK-MEL-5
SK-OV-3 = system: SK-OV-3
SNB-19 = system: SNB-19
SNB-75 = system: SNB-75
SW-620 = system: SW-620
TK-10 = system: TK-10
U-251 = system: U-251
UACC-257 = system: UACC-257
UACC-62 = system: UACC-62
UO-31 = system: UO-31
LOX IMVI = system: LOX IMVI
NCI-H226 = system: NCI-H226
SF-539 = system: SF-539
SN12C = system: SN12C
T47D = system: T47D
CCRF-CEM = system: CCRF-CEM
HL-60 = system: HL-60
SR = system: SR

## CCCCN1CCC(O)(c2cc(C(=O)O)[nH]c2-c2cc(C)no2)C1=O (stereo unspecified)
786-0
  GI50: > 100 µM (inactive)
A498
  GI50: > 100 µM (inactive)
A549
  GI50: > 100 µM (inactive)
ACHN
  GI50: > 100 µM (inactive)
BT-549
  GI50: > 100 µM (inactive)
CAKI-1
  GI50: > 100 µM (inactive)
COLO 205
  GI50: > 100 µM (inactive)
DU-145
  GI50: > 100 µM (inactive)
EKVX
  GI50: > 100 µM (inactive)
HCC 2998
  GI50: > 100 µM (inactive)
HCT-116
  GI50: > 100 µM (inactive)
HCT-15
  GI50: > 100 µM
HOP-62
  GI50: > 100 µM (inactive)
HOP-92
  GI50: > 100 µM (inactive)
HT-29
  GI50: > 100 µM (inactive)
Hs-578T
  GI50: > 100 µM (inactive)
IGROV-1
  GI50: > 100 µM (inactive)
K562
  GI50: > 100 µM (inactive)
KM12
  GI50: > 100 µM (inactive)
M14
  GI50: > 100 µM (inactive)
MCF7
  GI50: > 100 µM (inactive)
MDA-MB-231
  GI50: > 100 µM (inactive)
MDA-MB-435
  GI50: > 100 µM (inactive)
MDA-N
  GI50: > 100 µM (inactive)
MOLT-4
  GI50: > 100 µM (inactive)
Malme-3M
  GI50: > 100 µM (inactive)
NCI-H23
  GI50: > 100 µM (inactive)
NCI-H460
  GI50: > 100 µM (inactive)
NCI-H522
  GI50: > 100 µM (inactive)
NCI/ADR-RES
  GI50: > 100 µM (inactive)
OVCAR-3
  GI50: > 100 µM (inactive)
OVCAR-4
  GI50: > 100 µM (inactive)
OVCAR-5
  GI50: > 100 µM (inactive)
OVCAR-8
  GI50: > 100 µM (inactive)
PC-3
  GI50: > 100 µM (inactive)
RPMI-8226
  GI50: > 100 µM (inactive)
RXF 393
  GI50: 43.5 µM (inactive)
SF-268
  GI50: > 100 µM (inactive)
SF-295
  GI50: > 100 µM (inactive)
SK-MEL-28
  GI50: > 100 µM (inactive)
SK-MEL-2
  GI50: > 100 µM (inactive)
SK-MEL-5
  GI50: > 100 µM (inactive)
SK-OV-3
  GI50: > 100 µM (inactive)
SNB-19
  GI50: > 100 µM (inactive)
SNB-75
  GI50: 49.9 µM (inactive)
SW-620
  GI50: > 100 µM (inactive)
TK-10
  GI50: > 100 µM (inactive)
U-251
  GI50: > 100 µM (inactive)
UACC-257
  GI50: > 100 µM (inactive)
UACC-62
  GI50: > 100 µM (inactive)
UO-31
  GI50: > 100 µM (inactive)

## Cn1c(C(C#N)c2nc(Cl)ncc2Br)nc2ccccc21 (stereo unspecified)
786-0
  GI50: > 100 µM (inactive)
A498
  GI50: > 100 µM (inactive)
A549
  GI50: > 100 µM (inactive)
ACHN
  GI50: > 100 µM (inactive)
BT-549
  GI50: > 100 µM (inactive)
CAKI-1
  GI50: > 100 µM (inactive)
COLO 205
  GI50: > 100 µM (inactive)
DU-145
  GI50: > 100 µM (inactive)
EKVX
  GI50: > 100 µM (inactive)
HCT-116
  GI50: > 100 µM (inactive)
HCT-15
  GI50: > 100 µM
HOP-62
  GI50: > 100 µM (inactive)
HOP-92
  GI50: > 100 µM (inactive)
HT-29
  GI50: > 100 µM (inactive)
IGROV-1
  GI50: > 100 µM (inactive)
KM12
  GI50: > 100 µM (inactive)
LOX IMVI
  GI50: > 100 µM (inactive)
M14
  GI50: > 100 µM (inactive)
MDA-MB-231
  GI50: > 100 µM (inactive)
MDA-MB-435
  GI50: > 100 µM (inactive)
MDA-N
  GI50: > 100 µM (inactive)
MOLT-4
  GI50: > 100 µM (inactive)
Malme-3M
  GI50: > 100 µM (inactive)
NCI-H226
  GI50: > 100 µM (inactive)
NCI-H23
  GI50: > 100 µM (inactive)
NCI-H460
  GI50: > 100 µM (inactive)
NCI-H522
  GI50: > 100 µM (inactive)
NCI/ADR-RES
  GI50: > 100 µM (inactive)
OVCAR-3
  GI50: > 100 µM (inactive)
OVCAR-4
  GI50: > 100 µM (inactive)
OVCAR-5
  GI50: > 100 µM (inactive)
OVCAR-8
  GI50: > 100 µM (inactive)
RPMI-8226
  GI50: > 100 µM (inactive)
RXF 393
  GI50: > 100 µM (inactive)
SF-268
  GI50: > 100 µM (inactive)
SF-295
  GI50: > 100 µM (inactive)
SF-539
  GI50: 44.5 µM (inactive)
SK-MEL-28
  GI50: > 100 µM (inactive)
SK-MEL-5
  GI50: > 100 µM (inactive)
SK-OV-3
  GI50: > 100 µM (inactive)
SN12C
  GI50: > 100 µM (inactive)
SNB-19
  GI50: > 100 µM (inactive)
SNB-75
  GI50: 82 µM (inactive)
SW-620
  GI50: > 100 µM (inactive)
T47D
  GI50: > 100 µM (inactive)
TK-10
  GI50: > 100 µM (inactive)
U-251
  GI50: > 100 µM (inactive)
UACC-257
  GI50: > 100 µM (inactive)
UO-31
  GI50: > 100 µM (inactive)

## COc1c2occc2cc2ccc(=O)oc12 [METHOXSALEN]
786-0
  GI50: > 100 µM (inactive)
A498
  GI50: > 100 µM (inactive)
A549
  GI50: > 100 µM (inactive)
ACHN
  GI50: > 100 µM (inactive)
BT-549
  GI50: > 100 µM (inactive)
CAKI-1
  GI50: > 100 µM (inactive)
CCRF-CEM
  GI50: > 100 µM (inactive)
COLO 205
  GI50: > 100 µM (inactive)
DU-145
  GI50: > 100 µM (inactive)
HCC 2998
  GI50: > 100 µM (inactive)
HCT-116
  GI50: > 100 µM (inactive)
HCT-15
  GI50: > 100 µM
HL-60
  GI50: 90.2 µM (inactive)
HOP-62
  GI50: > 100 µM (inactive)
HOP-92
  GI50: > 100 µM (inactive)
K562
  GI50: > 100 µM (inactive)
LOX IMVI
  GI50: > 100 µM (inactive)
M14
  GI50: > 100 µM (inactive)
MCF7
  GI50: > 100 µM (inactive)
MDA-MB-231
  GI50: > 100 µM (inactive)
MDA-MB-435
  GI50: > 100 µM (inactive)
MDA-N
  GI50: > 100 µM (inactive)
MOLT-4
  GI50: > 100 µM (inactive)
NCI-H23
  GI50: > 100 µM (inactive)
NCI-H460
  GI50: 62.7 µM (inactive)
OVCAR-3
  GI50: > 100 µM (inactive)
OVCAR-4
  GI50: > 100 µM (inactive)
OVCAR-5
  GI50: > 100 µM (inactive)
PC-3
  GI50: > 100 µM (inactive)
RPMI-8226
  GI50: > 100 µM (inactive)
SF-295
  GI50: > 100 µM (inactive)
SF-539
  GI50: > 100 µM (inactive)
SK-MEL-28
  GI50: > 100 µM (inactive)
SK-MEL-2
  GI50: > 100 µM (inactive)
SK-MEL-5
  GI50: > 100 µM (inactive)
SK-OV-3
  GI50: > 100 µM (inactive)
SN12C
  GI50: > 100 µM (inactive)
SNB-19
  GI50: > 100 µM (inactive)
SR
  GI50: 90.6 µM (inactive)
SW-620
  GI50: > 100 µM (inactive)
T47D
  GI50: > 100 µM (inactive)
TK-10
  GI50: > 100 µM (inactive)
U-251
  GI50: > 100 µM (inactive)
UACC-257
  GI50: > 100 µM (inactive)
UACC-62
  GI50: 34.9 µM (inactive)
UO-31
  GI50: > 100 µM (inactive)
